The test concerns HBV. Kind of test: HBV replication inhibition assay (BDNA assay) in HepG2.2.15 cells. The test is classed as cell-based. As to conditions: Hepatitis B virus, 144 h, 6 days treatment, encapsidated HBV DNA in supernatant by branched DNA QuantiGene assay. Here is the method: HBV replication inhibition by the disclosed compounds were determined in cells infected or transfected with HBV or cells with stably integrated HBV, such as HepG2.2.15 cells (Sells et al. 1987). In this example, HepG2.2.15 cells were maintained in cell culture medium containing 10% fetal bovine serum (FBS), Geneticin, L-glutamine, penicillin and streptomycin. HepG2.2.15 cells were seeded in 96-well plates at a density of 40,000 cells/well and were treated with serially diluted compounds at a final DMSO concentration of 0.5% either alone or in combination by adding drugs in a checker box format. Cells were incubated with compounds for three days, after which medium was removed and fresh medium containing compounds was added to cells and incubated for another three days. At day 6, supernatant was removed and treated with DNase at 37° C. for 60 minutes, followed by enzyme inactivation at 75° C. for 15 minutes. Encapsidated HBV DNA was released from the virions and covalently linked HBV polymerase by incubating in lysis buffer (Affymetrix QS0010) containing 2.5 μg proteinase K at 50° C. for 40 minutes. HBV DNA was denatured by addition of 0.2 M NaOH and detected using a branched DNA (BDNA) QuantiGene assay kit according to manufacturer recommendation (Affymetrix). HBV DNA levels were also quantified using qPCR, based on amplification of encapsidated HBV DNA extraction with QuickExtraction Solution (Epicentre Biotechnologies) and amplification of HBV DNA using HBV specific PCR probes that can hybridize to HBV DNA and a fluorescently labeled probe for quantitation. In addition, cell viability of HepG2.2.15 cells incubated with test compounds alone or in combination was determined by using CellTitre-Glo reagent according to the manufacturer protocol (Promega). The mean background signal from wells containing only culture medium was subtracted from all other samples, and percent inhibition at each compound concentration was calculated by normalizing to signals from HepG2.2.15 cells treated with 0.5% DMSO using equation El.
E1: % inhibition=(DMSOave−Xi)/DMSOave×100%
where DMSOave is the mean signal calculated from the wells that were treated with DMSO control (0% inhibition control) and Xi is the signal measured from the individual wells. EC50 values, effective concentrations that achieved 50% inhibitory effect, were determined by non-linear fitting using Graphpad Prism software (San Diego, Calif.) and equation E2.
E2: Y=Ymin+(Ymax−Ymin)/(1+10(Log EC50-X)×HillSlope)
where Y represents percent inhibition values and X represents the logarithm of compound concentrations.
Selected disclosed compounds were assayed in the HBV replication assay (BDNA assay), as described above, and a representative group of these active compounds is shown in Table 3.
Broadly, the EC50 is the concentration needed to bring the measured effect to its halfway point. Consider `N#Cc1cc(NC(=O)N2CCc3nn4c(c3C2)OCC=C(CO)C4)ccc1F` [Example 1, N-(3-Cyano-4-fluorophenyl)-4-(hydroxymethyl)-5,8,9,11-tetrahydropyrido-[4′,3′:3,4]pyrazolo[5,1-b] [1,3] oxazepine-10(2H)-carboxamide], for which the EC50 is 18 nM.

With `N#Cc1cc(NC(=O)N2CCc3nn4c(c3C2)SCCC(O)C4)ccc1F` (stereo not shown) [Example 2, N-(3-Cyano-4-fluorophenyl)-4-hydroxy-2,3,4,5,8,9-hexahydropyrido[4′,3′:3,4]-byrazolo[5,1-b][1,3]thiazepine-10(11H)-carboxamide], the EC50 came out at 15 nM.

For the molecule `N#Cc1cc(NC(=O)N2CCc3nn4c(c3C2)SCC(O)CC4)ccc1F` (stereo not shown) [Example 3, N-(3-Cyano-4-fluorophenyl)-3-hydroxy-2,3,4,5,8,9-hexahydropyrido[4′,3′:3,4]-pyrazolo[5,1-b][1,3]thiazepine-10(11H)-carboxamide], the EC50 is 5 nM.

Regarding `N#Cc1cc(NC(=O)N2CCc3nn4c(c3C2)[S+]([O-])CCC(O)C4)ccc1F` (stereo not shown) [Example 4, N-(3-Cyano-4-fluorophenyl)-4-hydroxy-2,3,4,5,8,9-hexahydropyrido[4′,3′:3,4]-pyrazolo[5,1-b][1,3]thiazepine-10(11H)-carboxamide 1-oxide], the EC50 came out at 834 nM.

Consider `N#Cc1cc(NC(=O)N2CCc3nn4c(c3C2)S(=O)(=O)CCC(O)C4)ccc1F` (stereo not shown) [Example 5, N-(3-Cyano-4-fluorophenyl)-4-hydroxy-2,3,4,5,8,9-hexahydropyrido[4′,3′:3,4]-pyrazolo[5,1-b][1,3]thiazepine-10(11H)-carboxamide 1,1-dioxide], for which the EC50 came out at 40 nM.

As to `N#Cc1cc(NC(=O)N2CCc3nn4c(c3C2)[S+]([O-])CC(O)CC4)ccc1F` (stereo not shown) [Example 6, N-(3-Cyano-4-fluorophenyl)-3-hydroxy-2,3,4,5,8,9-hexahydropyrido[4′,3′:3,4]-pyrazolo[5,1-b][1,3]thiazepine-10(11H)-carboxamide 1-oxide], the EC50 was 141 nM.

For `N#Cc1cc(NC(=O)N2CCc3nn4c(c3C2)S(=O)(=O)CC(O)CC4)ccc1F` (stereo not shown) [Example 7, N-(3-Cyano-4-fluorophenyl)-3-hydroxy-2,3,4,5,8,9-hexahydropyrido[4′,3′:3,4]-pyrazolo[5,1-b][1,3]thiazepine-10(11H)-carboxamide 1,1-dioxide], the EC50 worked out at 3.5 nM.

These data come from patent US20220251114A1, “AZEPINES AS HBV CAPSID ASSEMBLY MODULATORS” (Janssen Sciences Ireland Unlimited Company, priority 2019, published 2022).
